The values below come from PMC9081825 (2022).

What all share (test): QD fluorescence recovery on release from amSWCNT
In test [1] the test system is A08min-QDs (multi-QD mixture, nanocomplex 1) (DNA, aptamer) GGCAGTGTGGGCGAATCTATGCGTACCGTTCGATATCGTG
The following applies: 137 mM NaCl, 2.7 mM KCl; phosphate buffer pH 7.4; tested at 1.5 μM; 530 nm.

Test [2] relates to A08min-GQD (nanocomplex 3) (DNA, aptamer) GGCAGTGTGGGCGAATCTATGCGTACCGTTCGATATCGTG
The following applies: 137 mM NaCl, 2.7 mM KCl; phosphate buffer pH 7.4; OTA 0-1.2 μM; 525 nm; 0.12 mg/mL amSWCNT.

Test [3] relates to A08min-RQD (nanocomplex 4) (DNA, aptamer) GGCAGTGTGGGCGAATCTATGCGTACCGTTCGATATCGTG
The following applies: 137 mM NaCl, 2.7 mM KCl; phosphate buffer pH 7.4; OTA 0-1.2 μM; 650 nm; 0.12 mg/mL amSWCNT.

The test system of test [4] is 1.12.2-GQD (nanocomplex 3) (DNA, aptamer) GATCGGGTGTGGGTGGCGTAAAGGGAGCATCGGACA
The following applies: 120 mM NaCl, 5 mM KCl, 10 mM CaCl2, 10 mM HEPES pH 7.0 (buffer listed for 1.12.2 in supplement).

The subject of test [5] is 1.12.2-RQD (nanocomplexes 4 and 5) (DNA, aptamer) GATCGGGTGTGGGTGGCGTAAAGGGAGCATCGGACA
The following applies: 120 mM NaCl, 5 mM KCl, 10 mM CaCl2, 10 mM HEPES pH 7.0 (buffer listed for 1.12.2 in supplement).

SMILES strings stand for the structures.

`CC(=O)CC(c1ccccc1)c1c(O)c2ccccc2oc1=O` (centres unmarked): the binding entry in test [1] was “no”.
As to `CCCC[C@@H](C)[C@@H](OC(=O)C[C@@H](CC(=O)O)C(=O)O)[C@H](C[C@@H](C)C[C@H](O)CCCC[C@@H](O)C[C@H](O)[C@H](C)N)OC(=O)C[C@@H](CC(=O)O)C(=O)O`, the binding entry in test [1] was “no”.
Regarding `C[C@@H]1Cc2c(Cl)cc(C(=O)N[C@@H](Cc3ccccc3)C(=O)O)c(O)c2C(=O)O1`, the binding entry in test [2], in test [3], in test [4] and in test [5] was “yes” in each case.
In the case of `C[C@@H]1Cc2ccc(C(=O)N[C@@H](Cc3ccccc3)C(=O)O)c(O)c2C(=O)O1`, the binding result in test [1] is “no”.
`O=C1C=C2C(=CCOC2O)O1` (centres unmarked): the binding result in test [1] is “no”.
